Assay results published in patent US10494341B2, “Compound containing indoleacetic acid core structure and use thereof” (Beijing An Jian Xi Bio-Medical Technology Co., Ltd., priority 2015, dated 2019).

Assays:
Type in all cases: in vivo
[1] = test system: gastric mucosa; assay: Ulcer induction in rats after gavage (lesions of the gastric mucosa); conditions: for prevalence of ulcer / Ulcer index: gavage three times; for Ulcer index: Dose 90 μM/kg, 12 hours after last gavage; for ulcer at high concentration: gavage, high concentration (90 μM)
[2] = biological target: T1, COX-1 in gastric mucosa (Rattus norvegicus, UniProt Q63921); assay: COX-1 activity assay, gastric mucosa (thromboxane B2 EIA) after oral dosing of A23187-treated rats; conditions: for reduction of inhibition against COX-1 in gastric mucosal tissue compared with intermediate I: gavage 1, 3, 9 mg/kg/day, intermediate I 0.5 mg/kg, 6 h after dosing; for effect of inhibiting COX-1 in gastric mucosa: gavage, A23187-activated
T1 construct: from tissue; host or cells: rat gastric mucosa (in vivo dosing, tissue homogenate supernatant)
T1 sequence (Q63921 27-602): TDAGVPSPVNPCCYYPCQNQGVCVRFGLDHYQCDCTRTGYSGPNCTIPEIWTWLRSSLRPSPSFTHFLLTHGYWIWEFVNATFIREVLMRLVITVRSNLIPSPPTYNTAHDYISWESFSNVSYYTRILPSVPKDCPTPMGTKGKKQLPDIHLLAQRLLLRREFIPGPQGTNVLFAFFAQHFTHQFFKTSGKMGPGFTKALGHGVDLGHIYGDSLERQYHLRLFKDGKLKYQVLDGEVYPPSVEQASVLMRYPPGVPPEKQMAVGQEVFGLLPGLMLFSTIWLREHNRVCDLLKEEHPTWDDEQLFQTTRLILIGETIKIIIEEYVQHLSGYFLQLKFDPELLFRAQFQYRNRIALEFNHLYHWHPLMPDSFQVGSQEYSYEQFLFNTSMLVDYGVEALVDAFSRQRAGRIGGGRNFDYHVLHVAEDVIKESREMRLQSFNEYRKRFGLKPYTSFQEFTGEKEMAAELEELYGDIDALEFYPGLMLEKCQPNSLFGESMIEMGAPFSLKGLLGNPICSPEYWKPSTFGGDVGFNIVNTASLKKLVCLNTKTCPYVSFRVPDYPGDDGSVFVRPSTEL
Protocol: (1) COX-1 activity assay: 2 hours after intraperitoneal injection of calcium ionophore A23187 (50 mg/kg) to rats, each of the compounds a, b, c, d, e and f was orally administered (gavage) to three rats at a dose of 1, 3 and 9 mg/kg/day, respectively; the intermediate I was orally administered as a control drug to three rats at a dose of 0.5 mg/kg; and additional three rats were only administered with COX-1 activator, the calcium ionophore A23187, and were not administered with the compounds of the present invention. 6 hours after the compound of the present invention was administered, the animals were sacrificed, gastric mucosal tissue and myocardial tissue were collected, homogenized, and subjected to high-speed centrifugation (12,000 rpm), and the supernatant was collected for use. The amount of thromboxane B2 was measured using an enzyme-linked immunosorbent assay (EIA) kit (operated in accordance with the instructions provided by the manufacturer) and converted to COX1 activity.
(§1) The percentage inhibition rate against COX-1 (FIG. 1a—gastric mucosa, FIG. 1b—myocardium) and COX-2 (FIG. 1c) and the IC50 values (Table 1a—gastric mucosa; Table 1b—myocardium) of each tested pharmaceutical compound were calculated from the above data.

[3] = biological target: T2, COX-2 (Rattus norvegicus, UniProt P35355); assay: COX-2 activity assay (PGE2 in gastric mucosa, EIA) in LPS-treated rats; conditions: gavage, LPS 2.5 mg/kg-activated
T2 construct: from tissue; host or cells: rat gastric mucosa (LPS-treated rats, in vivo dosing)
T2 sequence (P35355 18-604): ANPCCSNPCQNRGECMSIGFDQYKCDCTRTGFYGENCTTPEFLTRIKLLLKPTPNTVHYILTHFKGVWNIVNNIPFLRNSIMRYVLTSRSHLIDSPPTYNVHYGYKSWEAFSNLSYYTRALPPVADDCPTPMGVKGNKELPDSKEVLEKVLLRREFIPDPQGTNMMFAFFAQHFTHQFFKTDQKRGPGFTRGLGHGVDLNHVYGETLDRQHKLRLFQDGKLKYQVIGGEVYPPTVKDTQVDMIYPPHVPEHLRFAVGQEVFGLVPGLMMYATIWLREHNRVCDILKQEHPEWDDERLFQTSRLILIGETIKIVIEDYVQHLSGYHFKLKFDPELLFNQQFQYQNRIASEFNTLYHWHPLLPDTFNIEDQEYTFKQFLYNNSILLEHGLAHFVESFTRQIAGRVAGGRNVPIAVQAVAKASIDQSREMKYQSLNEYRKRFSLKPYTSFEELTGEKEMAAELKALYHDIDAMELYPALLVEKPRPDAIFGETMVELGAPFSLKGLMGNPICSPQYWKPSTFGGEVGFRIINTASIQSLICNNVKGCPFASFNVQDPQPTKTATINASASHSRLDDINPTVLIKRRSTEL
Protocol: (2) COX-2 activity assay: The assay was similar to that of COX-1, except that LPS was injected intraperitoneally to rats at a dose of 2.5 mg/kg to activate COX-2 in this experiment. After administration, the content of PGE2 in gastric mucosa was measured using an enzyme-linked immunosorbent assay (EIA) kit (operated according to the instructions provided by the manufacturer) and converted to COX2 activity.
as §1

[4] = test system: peripheral leukocytes; assay: Protection against blood cell (leukocyte) damage induced by paclitaxel; conditions: mice, compounds 6 mg/kg/day gavage; for protective effect on peripheral leukocytes (words): paclitaxel 10 mg/kg/day i.p.; for protective effect on leukocytes at the late stage of chemotherapy: paclitaxel
Protocol: In this experiment, 10-week-old male mice (C57BL/6J) weighing about 20 grams were used as subjects, and 6 mice were taken as a group. The mice were divided into 5 groups: 1. Paclitaxel; 2. Paclitaxel+amifostine; 3. Paclitaxel+intermediate I+intermediate II; 4. paclitaxel+compound a; and 5. paclitaxel+compound b. Firstly, each group of mice was administered with a protective agent, and the specific amounts were as follows: compounds a and b: each 6 mg/kg/day (8.1 μM), amifostine: 400 mg/kg/day (1.5 mM), intermediate I+Intermediate II: each 3 mg/kg/day (8.1 μM). Except that amifostine was intraperitoneally injected (30 minutes before administering Paclitaxel, amifostine was administered), the other protective agents were administered by gavage (once a day, 25 times continuously). 12 hours after the compound a and the corresponding protective agents were administered, Paclitaxel was intraperitoneally injected (10 mg/kg/day, once every 3 days, 9 times continuously), and 7, 14, 21, 28 days later, blood of mice was drawn respectively. The number of leukocytes was analyzed.

SMILES | prevalence of ulcer ([1]; 10 μM) | prevalence of ulcer ([1]; 30 μM) | prevalence of ulcer ([1]; 90 μM) | Ulcer index [1] | ulcer at high concentration [1] | reduction of inhibition against COX-1 in gastric mucosal tissue compared with intermediate I [2] [fold] | effect of inhibiting COX-1 in gastric mucosa [2] | inhibition against COX-2 [3] | protective effect on peripheral leukocytes (words) [4] | protective effect on leukocytes at the late stage of chemotherapy [4] | protective effect on peripheral leukocytes (words) ([4]; listed as Compound b)
COC1=C(OC)C(=O)C(CCCCCCCCCCOC(=O)Cc2c(C)n(C(=O)c3ccc(Cl)cc3)c3cc(OC)ccc23)=C(C)C1=O [compound a] | 0/6 | 0/6 | 1/6 | 3.3 ± 0.12 | only one rat has light ulcer | ~700 | almost lose the effect of inhibiting COX-1 in gastric mucosa | significantly enhanced | apparently reduce radiation-induced peripheral leukocyte damage | significantly better than that of amifostine | –
COc1ccc2c(CC(=O)OCCCCCCCCCCc3c(C)c(O)c(OC)c(OC)c3O)c(C)n(C(=O)c3ccc(Cl)cc3)c2c1 [compound b] | 0/6 | 0/6 | 0/6 | 0 | does not result in ulcer | ~700 | almost lose the effect of inhibiting COX-1 in gastric mucosa | significantly enhanced | apparently reduce radiation-induced peripheral leukocyte damage | significantly better than that of amifostine | strongest protective effect
